This note sets out measurements from US3985621A, “Stopping agents for enzyme reactions of dehydrogenase systems” (priority 1974, dated 1976).

Series [1] can be described thus: Stability of absorption intensity of coenzyme at 340nm after dissolution in CAPS buffer solution. Type of series: physicochemical. The settings on record: for O.D. change at 340nm (change in absorbance per hour, 1 cm cell): coenzyme 1.1 × 10^-4 M, over 3 hours. The method, then:
1) Coenzyme dissolved in the indicated buffer solution to 1.1 ×
2) Change in absorbance per hour given when measured by the use of a cell
with optical path length of 1 cm.
3) Changes in absorbance of ±0.002A or less over 3 hours immediately
after dissolution are expressed as "not changed".

Series [2] can be described thus: Absorption at 340nm of NAD or NADP dissolved in aqueous strong alkali. It counts as physicochemical. The conditions noted are these: e.g., sodium hydroxide or potassium hydroxide, then gradually decreased. An excerpt:
Such changes continuously occur over several hours and the higher an alkali concentration is, the greater change is. It is, therefore, extremely difficult to find out such a condition that an enzyme reaction is stopped without any influence upon absorption of coenzyme, when an aqueous solution of a strong alkali having no buffer action is employed.

A further series deals with ALD. The series can be described thus: Inhibitory action of CAPS buffer solution on dehydrogenase reaction, serum ALD diagnostic kit. It counts as biochemical, human. The text has this: In measuring ALD activity, one can carry out by adding to a reaction medium fructose-1,6-diphosphate which is a substrate, togethe with triose phosphate isomerase (hereinafter referred to as TMI) and glycerol-1-phosphate dehydrogenase (hereinafter referred to as GDH). In this system, the products by ALD are converted to dioxyacetone phosphoric acid, which is then converted to glycerol-1-phosphate by the action of GDH and NADH. NADH is simultaneously oxidized to NAD. Hydrolysis of 1 mole of fructose-1,6-diphosphate with ALD results in oxidation of 2 moles of NADH.
Four enzymes which are widely employed for examination in clinical diagnosis among various serum enzymes, were tested on the inhibitory actions by CAPS buffer solution. Some of our experiments are summarized in the Table 1 wherein changes in absorbance at 340nm during the whole process of the reaction are automatically recorded and expressed in terms of inhibition degree by adding serum to a reaction mixture for proceeding the reaction and then adding thereto CAPS buffer solution with varied concentrations, pH values and amounts added.
1) Diagnostic kits available from Calbiochem U.S.A., used for measuring
GOT, GPT and CPK and diagnostic kits available from Boeringer-Manheim,
West Germany, used for measuring ALD, standard human serum
(Caltrol-Abnormal) available from Calbiochem used for serum. […]

The subject of the next series is GPT. The experiment in a line: Inhibitory action of CAPS buffer solution on dehydrogenase reaction, serum GPT diagnostic kit. It counts as biochemical, human. An excerpt: (§1) For measuring serum GOT or GPT activity, the reaction can be carried out through addition of malic dehydrogenase to the reaction medium in case of GOT and LDH in case of GPT, together with the enzyme substrates such as α-ketoglutaric acid and L-aspartic acid for the former enzyme or α-ketoglutaric acid and L-alanine for the latter, and a reduced form of NAD (hereinafter referred to as NADH) in either case. Oxaloacetic acid derived from aspartic acid with GOT (in case of GPT, pyruvic acid derived from alanine, the GPT case being hereinafter referred to in the parenthesis) is converted to malic acid (lacetic acid) with malic dehydrogenase (lactic dehydrogenase) and NADH concurrently with oxidation of NADH to NAD, which results in decrease of absorbance at 340nm arising from NADH. An amount of the oxaloacetic acid (pyruvic acid) produced by GOT (GPT) is stoichiometrically equal to that of the NADH to be oxidized and a GOT (GPT) activity can be, therefore, determined from an oxidized amount of NADH which is obtained from an absorbance decrease at 340nm.
(§2) Four enzymes which are widely employed for examination in clinical diagnosis among various serum enzymes, were tested on the inhibitory actions by CAPS buffer solution. […]

The test system of the next series is GOT. The series can be described thus: Inhibitory action of CAPS buffer solution on dehydrogenase reaction, serum GOT diagnostic kit. Type of series: biochemical, human.
Excerpt: as §1, §2

Another series relates to CPK. The series can be described thus: Inhibitory action of CAPS buffer solution on dehydrogenase reaction, serum CPK diagnostic kit. It counts as biochemical, human. On the procedure: CPK in serum is increased along with injury of skeletal muscle or heart muscle. For determination of CPK activity, creatine phosphoric acid and adenosine-5'-diphosphate (hereinafter referred to as ADP) are employed as substrates and further hexokinase (hereinafter referred to as HK), glucose, glucose-6-phosphate dehydrogenase (hereinafter referred to as G6PDH) and NADP are added to the reaction medium. By the action of CPK, ADP is converted to adenosine-5'-triphosphate (hereinafter referred to as ATP), while glucose in the reaction medium is converted to glucose-6-phosphate by the action of the ATP and HK. Thereafter, the glucose-6-phosphate is converted to 6-phosphogluconic acid by the action of G6PDH and NADP and NADP is converted to a reduced form of NADP (hereinafter referred to as NADPH), along with the conversion, which results in increased absorbance at 340nm. The ATP amount produced by CPK is stoichiometrically equal to that of NADP to be reduced.
as §2

Series [3] is described as follows: Influence of alkaline buffer solutions on absorption intensity of coenzyme at 340nm. Type of series: physicochemical. The conditions noted are these: for Absorption of NAD at 340nm: added to an enzyme reaction mixture containing EDTA. An excerpt:
Such increasing action on absorption of NAD may continuously vary with the lapse of time and it is, therefore, difficult to correct influence caused therefrom.

Another series has as its system dehydrogenase reaction. The experiment in a line: Aqueous alkali solution of p-chloromercurybenzoate as stopping agent for dehydrogenase reaction. It counts as biochemical. The settings on record: reaction mixture of commercially available diagnostic kits. The text has this:
It is also reported in the art that an aqueous alkali solution of p-chloromercurybenzoate is applicable as a stopping agent for dehydrogenase reaction (E. Raabo, Scandinavian Journal of Clinical & Laboratory Investigation, 17, (1965), 265). […] Then, the prior solution seems to be of no practical use.

Where [4] appears, read: CAPS buffer solution 0.25M,pH12.5.

`NC(=O)c1ccc[n+]([C@@H]2O[C@H](COP(=O)([O-])OP(=O)(O)OC[C@H]3O[C@@H](n4cnc5c(N)ncnc54)[C@H](O)[C@@H]3O)[C@@H](O)[C@H]2O)c1` [NAD, nicotinamide-adenine dinucleotide]: the “O.D. change at 340nm (change in absorbance per hour, 1 cm cell)” value in series [1] (CAPS buffer solution 0.25M,pH12.0) is reported as not above 0.005 A/hr/cm; in series [1] (setting [4]) it was not above 0.010 A/hr/cm; in series [1] (CAPS buffer solution 0.33M,pH11.5) it was not above 0.005 A/hr/cm; in series [1] (CAPS buffer solution 0.5M,pH11.5) it was not above 0.010 A/hr/cm. In addition, the “Stability of coenzyme in CAPS buffer solution” value in series [1] (concentration 0.33M or more or pH 12 or higher) is “somewhat reduced”. In series [2], the “Time to peak of absorption intensity at 340nm” value lay within 10 to 20 min.
In the case of `NC(=O)c1ccc[n+]([C@@H]2O[C@H](COP(=O)([O-])OP(=O)(O)OC[C@H]3O[C@@H](n4cnc5c(N)ncnc54)[C@H](OP(=O)(O)O)[C@@H]3O)[C@@H](O)[C@H]2O)c1` [NADP, nicotinamide adenine dinucleotide phosphate], the “O.D. change at 340nm (change in absorbance per hour, 1 cm cell)” value in series [1] (setting [4]) is given as not above 0.005 A/hr/cm. Also, the “Stability of coenzyme in CAPS buffer solution” value in series [1] (pH 12.5 or higher) was “also reduced”. Besides, the “Time to peak of absorption intensity at 340nm” value in series [2] lay in the range of 10 to 20 min.
`[Na+].[OH-]` [NaOH soln., sodium hydroxide]: the “Complete inhibition concentration with aqueous NaOH soln. (Final concentration), ALD” value in the series with ALD is recorded as more than 0.1 N. Further, the “Complete inhibition concentration with aqueous NaOH soln. (Final concentration), GPT” value with GPT was more than 0.15 N. In the series with GOT, the “Complete inhibition concentration with aqueous NaOH soln. (Final concentration), GOT” value is more than 0.15 N. In the series on CPK, the “Complete inhibition concentration with aqueous NaOH soln. (Final concentration), CPK” value is on record as more than 0.1 N.
As for `N=C(N)NCCC[C@H](N)C(=O)O` [arginine buffer solution, arginine], the “Absorption of NAD at 340nm” value in series [3] was “increase in absorption of NAD at 340nm”.
Still for that read-out and setting: as for `NCC(=O)O` [glycine buffer solution, glycine], the entry is “increase in absorption of NAD at 340nm”.
Turning to `N=C(N)N` [guanidine buffer solution, guanidine], the “Absorption of NAD” value in series [3] (at the concentration and pH value to inhibit an action of an enzyme) is “may increase absorption of NAD”.
`O=C(O)c1cc[c]([Hg][Cl])cc1` [p-chloromercurybenzoate]: in the series with dehydrogenase reaction, the “Inhibition of dehydrogenase reaction” value is listed as “only partial inhibition”.
